Results as given in ChEMBL document CHEMBL1201862, “PubChem BioAssay data set” (2004).
Values joined by “and” are separate entries in the source; they are usually repeats but may differ in a detail not shown here. Identical values can stand only once.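 Method: 48-hour compound exposure of cells in 96-well plates, five concentrations, linear interpolation of endpoints. Abbreviation: GI50, concentration required for 50% inhibition of growth.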 Active and inactive are the calls of the source. Cut-off read from the data, not from the text of the source: active = GI50 up to about 1.1 µM and inactive = higher.

Columns and labels:
Experiment in all cases: NCI anticancer screen, dose series, 48 h
SNB-19 = tested on: SNB-19
KM12 = tested on: KM12
HCC 2998 = tested on: HCC 2998
MDA-MB-435 = tested on: MDA-MB-435
NCI-H226 = tested on: NCI-H226
NCI-H460 = tested on: NCI-H460
MDA-MB-231 = tested on: MDA-MB-231
HOP-62 = tested on: HOP-62
OVCAR-3 = tested on: OVCAR-3
HT-29 = tested on: HT-29
UACC-62 = tested on: UACC-62
MCF7 = tested on: MCF7
SN12C = tested on: SN12C
SF-539 = tested on: SF-539
MDA-N = tested on: MDA-N
NCI/ADR-RES = tested on: NCI/ADR-RES
CAKI-1 = tested on: CAKI-1
SK-MEL-5 = tested on: SK-MEL-5
ACHN = tested on: ACHN
UACC-257 = tested on: UACC-257
SK-OV-3 = tested on: SK-OV-3
K562 = tested on: K562
SF-268 = tested on: SF-268
COLO 205 = tested on: COLO 205
BT-549 = tested on: BT-549
A549 = tested on: A549
SW-620 = tested on: SW-620
SR = tested on: SR
RPMI-8226 = tested on: RPMI-8226
TK-10 = tested on: TK-10
MOLT-4 = tested on: MOLT-4
HOP-92 = tested on: HOP-92
EKVX = tested on: EKVX
LOX IMVI = tested on: LOX IMVI
A498 = tested on: A498
SK-MEL-2 = tested on: SK-MEL-2
HCT-15 = tested on: HCT-15
OVCAR-4 = tested on: OVCAR-4
SF-295 = tested on: SF-295
DU-145 = tested on: DU-145
IGROV-1 = tested on: IGROV-1
OVCAR-5 = tested on: OVCAR-5
HCT-116 = tested on: HCT-116
U-251 = tested on: U-251
HL-60 = tested on: HL-60
PC-3 = tested on: PC-3
M14 = tested on: M14
SK-MEL-28 = tested on: SK-MEL-28
OVCAR-8 = tested on: OVCAR-8
NCI-H23 = tested on: NCI-H23
CCRF-CEM = tested on: CCRF-CEM
786-0 = tested on: 786-0
SNB-75 = tested on: SNB-75
UO-31 = tested on: UO-31
RXF 393 = tested on: RXF 393
T47D = tested on: T47D

C#CC1(O)C(COP(=O)(O)OC(COCCCCCCCCCCCCCCCCCC)COP(=O)(O)OCC2OC(n3cc(F)c(=O)[nH]c3=O)CC2O)OC(n2ccc(N)nc2=O)C1O (configuration not stated)
GI50 (SNB-19): 152 nM (active) and 277 nM (active)
GI50 (KM12): 454 nM (active) and 252 nM (active)
GI50 (HCC 2998): 1.26 µM (inactive)
GI50 (MDA-MB-435): 514 nM (active) and 376 nM (active)
GI50 (NCI-H226): 471 nM (active) and 299 nM (active)
GI50 (NCI-H460): < 21.3 nM (active) and < 13.9 nM (active)
GI50 (MDA-MB-231): 1.1 µM (active) and 731 nM (active)
GI50 (HOP-62): 434 nM (active) and 399 nM (active)
GI50 (OVCAR-3): 1.04 µM (active) and 1.93 µM (inactive)
GI50 (HT-29): 361 nM (active) and 313 nM (active)
GI50 (UACC-62): 546 nM (active) and 277 nM (active)
GI50 (MCF7): < 24.7 nM (active) and < 18.3 nM (active)
GI50 (SN12C): 0.0818 µM (active)
GI50 (SF-539): < 21.3 nM (active) and < 23.3 nM (active)
GI50 (MDA-N): 418 nM (active) and 293 nM (active)
GI50 (NCI/ADR-RES): 209 nM (active) and 265 nM (active)
GI50 (CAKI-1): 48.5 nM (active) and 54.8 nM (active)
GI50 (SK-MEL-5): 621 nM (active) and 467 nM (active)
GI50 (ACHN): < 36.1 nM (active) and 59.2 nM (active)
GI50 (UACC-257): 1.15 µM (inactive) and 1.92 µM (inactive)
GI50 (SK-OV-3): 1.32 µM (inactive) and 2.43 µM (inactive)
GI50 (K562): < 31.3 nM (active) and 27.5 nM (active)
GI50 (SF-268): < 27.2 nM (active) and 48.8 nM (active)
GI50 (COLO 205): 244 nM (active) and 211 nM (active)
GI50 (BT-549): 752 nM (active) and 466 nM (active)
GI50 (A549): < 28.8 nM (active) and 29.7 nM (active)
GI50 (SW-620): 114 nM (active) and 91.8 nM (active)
GI50 (SR): < 13.8 nM (active) and < 15.7 nM (active)
GI50 (RPMI-8226): 26.2 nM (active) and < 16.3 nM (active)
GI50 (TK-10): 200 nM (active) and 124 nM (active)

COC(=O)C1(C(=O)OC)N=C(C)OC1/C=C/c1ccccc1 (configuration not stated)
GI50 (SNB-19): > 100 µM (inactive)
GI50 (MOLT-4): > 100 µM (inactive)
GI50 (KM12): > 100 µM (inactive)
GI50 (HCC 2998): > 100 µM (inactive)
GI50 (MDA-MB-435): > 100 µM (inactive)
GI50 (HOP-92): > 100 µM (inactive)
GI50 (EKVX): > 100 µM (inactive)
GI50 (NCI-H226): > 100 µM (inactive)
GI50 (LOX IMVI): > 100 µM (inactive)
GI50 (A498): > 100 µM (inactive)
GI50 (SK-MEL-2): > 100 µM (inactive)
GI50 (HCT-15): > 100 µM
GI50 (OVCAR-4): > 100 µM (inactive)
GI50 (SF-295): > 100 µM (inactive)
GI50 (NCI-H460): > 100 µM (inactive)
GI50 (HOP-62): > 100 µM (inactive)
GI50 (OVCAR-3): > 100 µM (inactive)
GI50 (DU-145): > 100 µM (inactive)
GI50 (IGROV-1): > 100 µM (inactive)
GI50 (OVCAR-5): > 100 µM (inactive)
GI50 (HCT-116): > 100 µM (inactive)
GI50 (UACC-62): > 100 µM (inactive)
GI50 (MCF7): > 100 µM (inactive)
GI50 (U-251): > 100 µM (inactive)
GI50 (SN12C): > 100 µM (inactive)
GI50 (HL-60): > 100 µM (inactive)
GI50 (PC-3): > 100 µM (inactive)
GI50 (M14): > 100 µM (inactive)
GI50 (MDA-N): > 100 µM (inactive)
GI50 (NCI/ADR-RES): > 100 µM (inactive)
GI50 (CAKI-1): > 100 µM (inactive)
GI50 (SK-MEL-5): > 100 µM (inactive)
GI50 (SK-MEL-28): > 100 µM (inactive)
GI50 (OVCAR-8): > 100 µM (inactive)
GI50 (ACHN): > 100 µM (inactive)
GI50 (UACC-257): > 100 µM (inactive)
GI50 (SK-OV-3): > 100 µM (inactive)
GI50 (NCI-H23): > 100 µM (inactive)
GI50 (K562): > 100 µM (inactive)
GI50 (CCRF-CEM): 75.3 µM (inactive)
GI50 (COLO 205): > 100 µM (inactive)
GI50 (BT-549): > 100 µM (inactive)
GI50 (786-0): > 100 µM (inactive)
GI50 (A549): > 100 µM (inactive)
GI50 (SW-620): > 100 µM (inactive)
GI50 (SR): > 100 µM (inactive)
GI50 (SNB-75): > 100 µM (inactive)
GI50 (RPMI-8226): 38 µM (inactive)
GI50 (TK-10): > 100 µM (inactive)
GI50 (UO-31): > 100 µM (inactive)
GI50 (RXF 393): > 100 µM (inactive)
GI50 (T47D): > 100 µM (inactive)
